Reference: US11278549B2, “Method of treating obesity” (McMaster University, priority 2013, dated 2022)
Counter-ions that a name gives are not always drawn.

Experiments:
5-HT2A = molecular target: T1, 5-HT2A (Mus musculus, UniProt P35363); experiment: Fluo-4 Ca2+ signals in brown adipocytes; type: cell-based; conditions: for 5-HT induced Ca2+ transients: pre-treatment with antagonist; for Ca2+ levels: brown adipocytes stained with Fluo-4, agonist treatment
T1 construct: endogenous in cells; host or cells: immortalized murine brown adipocytes (differentiated)
T1 sequence (P35363 whole entry): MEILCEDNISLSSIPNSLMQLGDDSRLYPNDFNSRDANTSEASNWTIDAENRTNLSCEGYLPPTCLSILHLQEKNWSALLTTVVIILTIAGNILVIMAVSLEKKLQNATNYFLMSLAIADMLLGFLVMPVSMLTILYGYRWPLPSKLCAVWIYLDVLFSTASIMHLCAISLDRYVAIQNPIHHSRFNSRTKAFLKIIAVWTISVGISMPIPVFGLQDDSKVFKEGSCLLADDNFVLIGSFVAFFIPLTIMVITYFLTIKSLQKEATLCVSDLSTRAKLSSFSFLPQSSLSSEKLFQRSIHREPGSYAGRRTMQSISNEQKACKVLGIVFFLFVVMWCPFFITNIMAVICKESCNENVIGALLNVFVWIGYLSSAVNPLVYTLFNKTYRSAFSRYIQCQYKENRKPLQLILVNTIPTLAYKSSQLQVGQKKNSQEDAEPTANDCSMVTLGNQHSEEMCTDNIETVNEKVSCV
Description: Immortalized BA progenitor cells obtained from 5-HT2A KO (B6; 129-5-HT2Atm1a/Nju from Nanjing Biomedical Research Institute of Nanjing University) mice were differentiated for 9 days to produce mature BAs. Cells were then stained with fluo-4 and treated with different concentrations of 5-HT to obtain a dose response curve. Values from BAs expressing 5-HT2A used for other experiments were plotted as a WT comparison.

HFD-fed C57Bl6 mice [1] = experiment: Metabolic cages and 18FDG-PET/CT of LP533401-treated HFD-fed mice; type: in vivo
Description: (§1) Metabolic monitoring was performed in a Comprehensive Lab Animal Monitoring System (CLAMS, Columbus Instruments, OH, USA) as previously described (Sachithanandan, N., et al. Hepatology 52, 1632-1642 (2010); O'Neill, H. M., et al. Proc Natl Acad Sci 108, 16092-16097 (2011)). CL-316,243 challenge experiments were also performed using the CLAMS equipment, as described. All metabolic monitoring occurred in a room kept between 26 and 28° C. Insulin and glucose tolerance tests were performed after 16 weeks of the diet intervention in Tph1^−/− mice experiments, and after 6-10 weeks of HFD weeks in LP533401 injection experiments as previously described (Steinberg, G. R., et al. J Biol Chem 285, 37198-37209 (2010)). For serum insulin and cytokine measurements, fasting and fed blood samples were collected by retro-orbital bleed between weeks 16-18 using a non-heparinized capillary tube and insulin, adiponectin, leptin were measured as described (Watt, M. J., et al. Nature medicine 12, 541-548 (2006)). Serum cytokines (MCP-1, TNFα, and IL-6) were measured using a multiplexed bead-based immunoassay (BD Biosciences, San Jose, Calif., USA) following the manufacturer's instructions.
(§2) In vivo glucose uptake and body composition: ^18F-Fluorodeoxyglucose (FDG) was synthesized at McMaster University by the nucleophilic substitution method using an FDG synthesizing instrument (GE Healthcare, Milwaukee, Wis., USA) and a cyclotron (Siemans 20-30 gb). After an 8 h fast, mice were injected with insulin (0.5 U/kg) diluted in 0.9% physiological saline and 5 minutes later received an intravenous administration of FDG (10.8±1.2 MBq/g). After injection, the mice were maintained under conscious conditions and warmed using a heating pad. At 28 minutes post saline or insulin injection mice were anaesthetized with isoflorane and at 30 minutes small-animal positron emission tomography (PET, Philip Mosaic, Andover, Mass.) and micro-computed tomography (CT) (Gamma Medica-Ideas Xspect System, NorthRidge, Calif.) imaging were performed using an acquisition time of 15 min for PET, followed by CT for 5 minutes. Images were reconstructed using 3D-RAMLA algorithm, with no attenuation correction and no correction for partial-volume effects of the tomograph as previously described^31. Quantification was performed by Region-of-interest (ROI) analysis using Amide Research Workplace software and FDG-tissue uptake calculated using the mean value of standard uptake values (SUV) as described (Palanivel R, Diabetologia. 55(11):3083-93 (2012)). Analysis of total body fat composition were determined by using Amira software (Visage Imaging) and the mean value of voxels of segmented adipose were calculated and expressed relative to total body mass.
To examine the mechanisms contributing to weight loss in LP533401-treated mice, HFD-fed mice were placed in metabolic cages after 12 days of treatment before any change in body mass was evident in groups (Vehicle: 29.4±0.58 g vs. LP533401:28.9±0.63 g).

[2] = test system: HFD-fed Ucp1+/+ and Ucp1-/- mice; experiment: LP533401 in HFD-fed Ucp1+/+ and Ucp1-/- mice at thermoneutrality; type: in vivo
Description: Ucp1 heterozygous mice were acquired from Jackson Laboratories and bred to produce UCP1-null (Ucp1^−/−) and wild-type (Ucp1^+/+) littermates. In order to prevent thermal stress, mice in this colony were bred and housed in a room maintained at 30° C. All testing except for the CL-316,243 challenge occurred at this temperature.
as §1
In order to establish whether the clinical benefits of Tph1 inhibition (weight loss and improvements in insulin sensitivity) are derived from increased thermogenesis mediated by UCP1, daily injections of LP533401 were performed using UCP1-null (Ucp1^−/−) and wild-type littermates (Ucp1^+/+) fed a HFD and housed under thermoneutral conditions (30° C.). […] Thus, the clinical benefits of Tph1 inhibition require UCP1 mediated thermogenesis.

HFD-fed C57Bl6 mice [3] = experiment: Daily LP533401 treatment of HFD-fed C57Bl6 mice (prevention of obesity); type: in vivo
Description: Animals. All experiments were approved by the McMaster University animal ethics committee and conducted under the Canadian guidelines for animal research. Tph1^−/− mice on C57BL/6 background were originally produced by gene mutation as described by Côté et al. (Proc Natl Acad Sci USA 100, 13525-13530 (2003)). Heterozygous (Tph1^+/−) mice were interbred to generate Tph1^−/− and Tph1^+/+ littermates. Starting at 8 weeks of age, male Tph1^−/− and Tph1^+/+ mice received either a chow (17% kcal fat; Diet 8640, Harlan Teklad, Madison, Wis.) or high-fat diet (HFD, 45% kcal fat, D12451, Research Diets; New Brunswick, N.J.) and water ad libitum for 12 weeks. For the initial chemical inhibitor studies, male C57BL/6 mice were purchased from Jackson's Laboratory at 6 weeks of age and immediately placed on the HFD described above. Starting at 8 weeks of age HFD-fed C57Bl6 mice received a daily intraperitoneal injection of the Tph1 inhibitor, LP533401 (25 mg/kg body weight, Dalton Pharma Services, Canada) dissolved in DMSO and diluted with water (5% DMSO final concentration) or equal volume of vehicle (5% DMSO in water). […] All mice were housed in SPF micro-isolator cages that were located in a room maintained at a constant temperature of 23° C. on a 12 h light/dark cycle with lights on at 0700.
as §1
as §2, with “Analysis of total body fat composition were determined by using Amira software (Visage Imaging) and the mean value of voxels of segmented adipose were calculated and expressed relative to total body mass.” left out

UCP1 = experiment: Ucp1 promoter activity, Ucp1 mRNA and UCP1 protein in brown adipocytes; type: cell-based, mouse
Description: Using RNA-Seq, cultured human brown and beige adipocytes were interrogated for 5-HT receptor mRNA expression. Immortalized murine brown adipocytes (BAs) were treated with or without the selective 5-HT reuptake inhibitor (SSRI), paroxetine (250 nM). Subsequent studies were conducted with and without 5-HT2A agonists (1 pM-10 uM TCB-2, 1 pM-10 uM AL-34662, and 1 pM-10 uM NBOH-2C-CN) and 5-HT2A antagonists (100 fM-100 pM MDL-100907, 100 pM-10 uM xylamidine tosylate, 1 nM ketanserin, 10 nM altanserin, 100 fM-100 pM EMD-281,014, and 100 pM-10 uM sarpogrelate hydrochloride).
BA progenitors were isolated and immortalized from WT and serotonin transporter (SERT; Gene: Slc6a4) KO mice. These cells were then differentiated for 7 days to obtain mature BAs. BAs were then treated with different doses of 5-HT for 4 hours. RNA was isolated and quantified using RT-qPCR with probes specific for Slc6a4, Ucp1 and PPIA.
BA progenitors were isolated from mice expressing a transgene where the luciferase gene is driven by the Ucp1 promoter (i.e. Ucp1-Luc2 mice; a.k.a. ThermoMouse; Jackson Laboratories). Upon 9 days of differentiation, these BAs were treated for 4 hours with different doses of 5-HT. Because in vitro there is not a continuous supply of 5-HT as there is in vivo, cells were treated with paroxetine to inhibit the uptake and consequent degradation of 5-HT, and to observe 5-HT receptor specific effects. These cells were then lysed, incubated with a luciferin assay cocktail, and the light generated quantified on a microplate reader.

5-HT receptor = experiment: Isoproterenol-induced lipolysis (FFA release) in immortalized BAT cells; type: cell-based, mouse; conditions: co-treatment with the antagonist (3 μM), n=2
Description: Briefly, confluent cells were placed in induction media (0.5 mM IBMX; 0.25 mM indomethacin; 2 μg/ml dexamethasone; 1 nM T3, 20 nM insulin) for two days and subsequently maintained on differentiation media (1 nM T3, 20 nM insulin). All experiments were performed on cultures 6-8 days post-induction. Unless otherwise indicated, cells were rinsed with PBS and media was changed to HEPES-buffered Krebs Ringer buffer (HKRB)+1% BSA. Where indicated, BAs were treated with serotonin for 30 min (100 μM; Sigma) followed by isoproterenol (1 nM, Sigma) for 4 h. The serotonin receptor antagonist, methysergide (3 μM) was used 45 min prior treatment with serotonin as above.

[4] = HFD-fed C57Bl6 mice, Tph1 inhibitor 25 mg/kg daily i.p., values ± SEM, n = 7-8

SMILES: N#Cc1c[nH]c2c(C(=O)N3CCN(CCc4ccc(F)cc4)CC3)cccc12 [EMD-281,014, pruvanserin]
- 5-HT induced Ca2+ transients (5-HT2A): attenuated

SMILES: COc1cccc(CCc2ccccc2OCC(CN(C)C)OC(=O)CCC(=O)O)c1 (centres unmarked) [Sarpogrelate hydrochloride]
- 5-HT induced Ca2+ transients (5-HT2A): attenuated

SMILES: C[C@H](N)Cn1ncc2ccc(O)cc21 [AL-34662]
- Ca2+ levels (5-HT2A): increased

SMILES: COc1cc(Br)c(OC)c2c1[C@H](CN)C2 [TCB-2]
- Ca2+ levels (5-HT2A): increased

SMILES: Nc1nc(OC(c2ccc(-c3cccc(F)c3)cc2)C(F)(F)F)cc(-c2ccc(C[C@H](N)C(=O)O)cc2)n1 (stereo partly drawn) [LP533401, (2S)-2-amino-3-(4-(2-amino-6-(2,2,2-trifluoro-1-(3′-fluoro-[1,1′-biphenyl]-4-yl)ethoxy)pyrimidin-4-yl)phenyl)propanoic acid]
- FDG uptake in BAT (HFD-fed C57Bl6 mice [1]; 18FDG-PET/CT): increased
- FDG uptake into eWAT (HFD-fed C57Bl6 mice [1]; PET, HFD-fed C57Bl6 mice): increased
- body mass (HFD-fed C57Bl6 mice [1]; after 12 days of treatment, before any change in body mass): 28.9 ± 0.63 g
- oxygen consumption (HFD-fed C57Bl6 mice [1]; dark and light cycles, after 12 days of treatment): increased
- browning of eWAT (HFD-fed C57Bl6 mice [1]; macroscopically evident, with marked UCP1 immunostaining): Increased
- food intake (HFD-fed C57Bl6 mice [1]; metabolic cages, P>0.05 vs vehicle, n=8): 13.7 ± 0.45 g
- activity levels (HFD-fed C57Bl6 mice [1]; metabolic cages, after 12 days of treatment): without altering
- expression of UCP1 in BAT (HFD-fed C57Bl6 mice [1]; mouse, in vivo): enhanced
- weight gain ([2]; Ucp1+/+ mice, HFD, 30° C.): attenuated weight gain
- improvements in glucose tolerance ([2]; Ucp1+/+ versus Ucp1-/- mice): entirely dependent on the expression of UCP1
- oxygen uptake and thermogenesis ([2]; challenged with CL-316,243, only Ucp1+/+ mice): increase
- accumulation of body fat (HFD-fed C57Bl6 mice [3]; 25 mg/kg i.p., versus vehicle): lower accumulation
- circulating serotonin levels (HFD-fed C57Bl6 mice [3]; 25 mg/kg i.p., versus vehicle): reduced
- glucose homeostasis (HFD-fed C57Bl6 mice [3]; 25 mg/kg i.p., versus vehicle): improvements
- insulin sensitivity (HFD-fed C57Bl6 mice [3]; 25 mg/kg i.p., versus vehicle): increased
- liver size (HFD-fed C57Bl6 mice [3]; 25 mg/kg i.p., versus vehicle): reductions
- weight gain (HFD-fed C57Bl6 mice [3]; 25 mg/kg i.p., versus vehicle (1-2 grams per week)): suppressed
- Tissue weight, Brown Adipose Tissue (HFD-fed C57Bl6 mice [3]; [4]): 153 ± 8.4 mg
- Tissue weight, Epididymal Fat Pad (HFD-fed C57Bl6 mice [3]; [4]): 1157 ± 121 mg
- Tissue weight, Inguinal Fat Pad (HFD-fed C57Bl6 mice [3]; [4]): 117 ± 16 mg
- Tissue weight, Retroperitoneal Fat Pad (HFD-fed C57Bl6 mice [3]; [4]): 265 ± 29.9 mg

SMILES: COc1cc(CCNCc2ccccc2O)c(OC)cc1C#N [NBOH-2C-CN]
- Ucp1 mRNA (UCP1; brown adipocytes): inhibited
- UCP1 protein levels (UCP1; brown adipocytes, chronic treatment for NBOH-2C-CN): decreased
- Ca2+ levels (5-HT2A): increased

SMILES: CC[C@@H](CO)NC(=O)[C@@H]1C=C2c3cccc4c3c(cn4C)C[C@H]2N(C)C1 [methysergide]
- effect of serotonin on isoproterenol-induced lipolysis (5-HT receptor): blocked

SMILES: COc1cccc([C@H](O)C2CCN(CCc3ccc(F)cc3)CC2)c1OC [MDL-100907, volinanserin]
- 5-HT induced decrease in UCP1 protein levels (UCP1; antagonist plus 5-HT): dose-dependently attenuated
- 5-HT induced Ca2+ transients (5-HT2A): attenuated

SMILES: Fc1ccc([C@@H]2CCNC[C@H]2COc2ccc3c(c2)OCO3)cc1 [paroxetine]
- sensitivity of brown adipocytes to inhibition by 5-HT (UCP1; serotonin transporter inhibited with the SSRI): greater sensitivity
